{"source": "patent US7732602B2", "about": "“Herbicide composition” (Sumitomo Chemical Company, Limited, priority 2001, dated 2010)", "assay_type_in_all_cases": "in vivo", "key": {"[1]": {"system": "yellow nutsedge", "experiment": "Herbicide effect, foliar spray on yellow nutsedge grown in pots (Test Example 1)", "design": "key: a level was taken “0” when completely or almost no difference was observed between the growth behavior of a test weed at the time of observation and that of untreated weed; a level was taken “10” when a test weed completely died or the growth of that was completely inhibited", "settings": "5 days after treatment, levels 0-10", "experimental": "(§1) Evaluation of phytotoxicity against a crop was shown by “no” when almost no phytotoxicity was observed, “low” when a low level phytotoxicity was observed, “medium” when a medium level phytotoxicity was observed and “high” when a high level phytotoxicity was observed.\n(§2) A plastic pot of 11 cm in diameter and 8 cm in depth was filled with field soil. A tuber of yellow nutsedge was buried and grown in a greenhouse for 28 days.\n(§3) An emulsion of Compound A-1 was prepared by sufficiently mixing 5 parts of Compound A-1, 6 parts of Sorpol 3005X (surfactant, produced by Toho Chemical) and 89 parts of xylene.\n(§4) Each of • (a) single use of an emulsion of Compound A-1, • (b) single use of a solution of Glyphosate isopropylamine salt (commercial name: Roundup, produced by Nippon Monsanto, containing 41% of Glyphosate isopropylamine salt), • (c) single use of a solution of Gltfosinate-Ammonium (commercial name: Basta, produced by Hoechst Schering AgrEvo GmbH, containing 18.5% of Glufosinate-Ammonium), • (d) a mixed composition of an emulsion of Compound A-1 and a solution of Glyphosate isopropylamine salt, and • (e) a mixed composition of an emulsion of Compound A-1 and a solution of Glufosinate-Ammonium were diluted with water containing 1% Agri-dex (produced by Helena). Respective dilutions were uniformly sprayed from upper side onto foliages of yellow nutsedge grown as described above with a small sprayer such that the amounts of the active ingredients were the amounts shown in Table 4. Immediately after the treatment with the test compounds, seeds of corn, soybean and cotton were sown.\n(§5) After the treatment, they were raised in a greenhouse for 5 days and the effect against weeds was evaluated. In addition, after 14 days of the treatment, the phytotoxicity to corn, soybean and cotton was evaluated."}, "[2]": {"system": "soybean", "experiment": "Phytotoxicity to soybean sown immediately after treatment (Test Example 1)", "design": "key: “no” when almost no phytotoxicity was observed; “low” when a low level phytotoxicity was observed; “medium” when a medium level phytotoxicity was observed; “high” when a high level phytotoxicity was observed", "settings": "14 days after treatment", "experimental": "as §1, §2, §3, §4, §5"}, "[3]": {"system": "corn", "experiment": "Phytotoxicity to corn sown immediately after treatment (Test Example 1)", "design": "key: “no” when almost no phytotoxicity was observed; “low” when a low level phytotoxicity was observed; “medium” when a medium level phytotoxicity was observed; “high” when a high level phytotoxicity was observed", "settings": "14 days after treatment", "experimental": "as §1, §2, §3, §4, §5"}, "[4]": {"system": "cotton", "experiment": "Phytotoxicity to cotton sown immediately after treatment (Test Example 1)", "design": "key: “no” when almost no phytotoxicity was observed; “low” when a low level phytotoxicity was observed; “medium” when a medium level phytotoxicity was observed; “high” when a high level phytotoxicity was observed", "settings": "14 days after treatment", "experimental": "as §1, §2, §3, §4, §5"}}, "note": "Where a name gives a salt, the structure may show the parent alone.", "data": [{"smiles": "CP(=O)(O)CCC(N)C(=O)O.N", "note": "(racemic) [Glufosinate-Ammonium, ammonium DL-homoalanin-4-yl(methyl)phosphinate]", "values": [{"measurement": "Herbicide Effect", "setting": "[1]; 100 g/ha", "result": 0}, {"measurement": "Herbicide Effect", "setting": "[1]; 500 g/ha", "result": 2}, {"measurement": "Phytotoxicity Be", "setting": "[2]; 100 g/ha", "result": "no"}, {"measurement": "Phytotoxicity Be", "setting": "[2]; 500 g/ha", "result": "no"}, {"measurement": "Phytotoxicity Cr", "setting": "[3]; 100 g/ha", "result": "no"}, {"measurement": "Phytotoxicity Cr", "setting": "[3]; 500 g/ha", "result": "no"}, {"measurement": "Phytotoxicity Ct", "setting": "[4]; 100 g/ha", "result": "no"}, {"measurement": "Phytotoxicity Ct", "setting": "[4]; 500 g/ha", "result": "no"}]}, {"smiles": "O=C(O)CNCP(=O)(O)O", "note": "[Glyphosate Isopropylamine Salt, N-(phosphonomethyl)glycine]", "values": [{"measurement": "Herbicide Effect", "setting": "[1]; 200 g/ha", "result": 0}, {"measurement": "Herbicide Effect", "setting": "[1]; 1000 g/ha", "result": 0}, {"measurement": "Phytotoxicity Be", "setting": "[2]; 200 g/ha", "result": "no"}, {"measurement": "Phytotoxicity Be", "setting": "[2]; 1000 g/ha", "result": "no"}, {"measurement": "Phytotoxicity Cr", "setting": "[3]; 200 g/ha", "result": "no"}, {"measurement": "Phytotoxicity Cr", "setting": "[3]; 1000 g/ha", "result": "no"}, {"measurement": "Phytotoxicity Ct", "setting": "[4]; 200 g/ha", "result": "no"}, {"measurement": "Phytotoxicity Ct", "setting": "[4]; 1000 g/ha", "result": "no"}]}]}
